The source of these data is patent US20070128657A1, “Molecular libraries” (priority 2002, published 2007).

Holding throughout (assay type): cell-based, Homo sapiens (human)
The test system of one assay is SW480.7 cells. In words: Cell proliferation status / death after ligand transfection, SW480.7. The conditions noted are these: SW480.7, 15 days, without puromycin selection. The procedure:
(§1) The purpose of this experiment is to confirm that the selected peptide ligand indeed restores the mutated p53 protein to the wild-type p53 function in SW480.7 cells. […] There might be a chance that the cells got the resistance with, or even without the help of the selected ligand via mechanisms other than p53-transactivated p21 promoter. Thus we should make sure that the mutant p53 in SW480.7 cells functions as wild-type p53 only if the selected ligand is added. […] The selected peptide ligand can be further verified only if it can induce cell cycle arrest or apoptosis in SW480.7 cells but neither in U-2 OS nor in Saos2 cells, which means the specificity of the selected ligand to p53 mutation in SW480.7. • 2—We also tested the transcription levels of genes that are only transactivated by wild-type p53.
(§2) Cells SW480.7, U-2OS, and Sa-os2 were transfected with peptide ligand and pCEP4 parallelly using the calcium phosphate method.
(§3) After transfection, cells were cultured without drug selection and diluted at the ratio of 1:100 every five days. Cell proliferation status was closely observed until ligand transfected SW480.7 cells died out. Life staining with 0.4% trypan blue was applied to determine the death of the cells. Dead cells can not exclude the dye thus were stained blue. Living cells can pump the dye outside thus were not stained. […]

The test system of another assay is U-2 OS (WTp53). The assay is described as follows: Cell proliferation status after ligand transfection, U-2 OS. The conditions noted are these: U2-OS, without puromycin selection. The procedure: as §1, §2, §3
The next assay relates to R273H/P309S p53 mutant. In words: RT-PCR of genes transactivated by wild-type p53 in ligand transfected SW480.7 cells. As for the experimental part:
as §1
P53 (wild-type) regulates different cell responses via transactivating different downstream genes. For example p53 causes cell cycle arrest at G1 phase by transactivation of p21 gene. While p53 causes cell arrest at G2 phase by transactivation of […]. Apoptosis is due to p53 transactivation of […] and/or Bax gene. Thus we measured p21, CD95, and 14-3-3σ gene transcription levels by RT PCR, to reveal the capability of the selected peptide ligand in restoring the wild-type p53 transactivation of the downstream genes. The expression level of β-actin was measured as a control. β-Actin transcription level was used to normalize total mRNA amount between samples for comparison owing to its constitutive expression in all cells.
After transfection, cells were cultured without drug selection and diluted at the ratio of 1:100 every five days. Cell proliferation status was closely observed until ligand transfected SW480.7 cells died out. Life staining with 0.4% trypan blue was applied to determine the death of the cells. Dead cells can not exclude the dye thus were stained blue. Living cells can pump the dye outside thus were not stained. Total RNA was collected from two wells of one ligand transfected SW480.7 plate and one pCEP4 transfected SW480.7 plate each day on day 0, day 1, and day 2 after transfection. Thus RNA samples were harvested as SW480.7/Ligand-0 day, SW480.7/Ligand-1 day, SW480.7/Ligand-2 day, SW480.7/pCEP4-0 day, SW480.7/pCEP4-1 day, SW480.7/pCEP4-2 day. Protocol for total RNA extraction by TRIZOL® Reagent was according to that given by Life Technology:
cDNA Amplification by PCR
8. Electrophoreses 5 μl of each PCR reaction alongside 0.1 μg of 1-kb DNA ladder on a 1.2% agarose/EtBr gel in 1×TBE buffer.

For assay [1], the system named is Saos2 cells (no p53 copy). The assay is described as follows: Cell proliferation status after ligand transfection, Saos-2. The conditions noted are these: Saos-2, without puromycin selection. As for the experimental part:
as §1, §2, §3

Setting [2] is: ligand transfected SW480.7 compared with empty pCEP4 transfected SW480.7 cells.

On to “M G W C T (MGWCT; Peptide sequence translated from DNA extracted from library-transfected cells.) [ligand]”, for which the “Cell growth status after transfection of the ligand” value (“Cell growth status” for short) in the assay on SW480.7 cells was “could no longer attach to the wall and died”. In the assay with U-2 OS (WTp53), the “Cell growth status” value is listed as “growing well”. Moreover, the “Restoration of wild type p53 function (RT-PCR analysis of mRNA)” value in the assay with R273H/P309S p53 mutant (ligand transfected SW480.7 cells) is on record as “can reestablish wild type p53 function”. For the same substance, in the assay with R273H/P309S p53 mutant (setting [2]), the “mRNA level of 14-3-3 gene” value was “Higher”, the “mRNA level of CD95 gene” value was “Higher” and the “mRNA level of p21 (WAF1/Cip1) gene” value is reported as “Higher”. In addition, in assay [1], the “Cell growth status” value was “growing well”.
